Values of other authors as cited in US20050059682A1, “Compositions and methods for treatment of cancer” (priority 2003, published 2005).

How the values were obtained:
[1] = tested on: prostate cancer; details: single-agent chemotherapy of prostate cancer
[2] = tested on: HDAC; details: in vitro or in vivo for SAHA, SBHA, CBHA
[3] = tested on: mammalian HDAC

Compound | efficacy as single agent [1] | further results
O=c1[nH]cc(F)c(=O)[nH]1 [5-fluorouracil] | minimal efficacy | 
O=C(/C=C/c1cccc(C(=O)NO)c1)NO [CBHA, m-carboxy-cinnamic acid bishydroxamic acid] |  | concentration at which HDAC is inhibited [2]: micromolar concentration or lower
C/C=C1\NC(=O)[C@H]2CSSCC/C=C/[C@H](CC(=O)N[C@H](C(C)C)C(=O)N2)OC(=O)[C@H](C(C)C)NC1=O [FR901228] |  | concentration at which HDAC is inhibited [2]: micromolar concentrations
CC(/C=C/C(=O)NO)=C\[C@@H](C)C(=O)c1ccc(N(C)C)cc1 [TSA, trichostatin A] |  | inhibition of mammalian HDAC [3]: potent inhibitor
N.N.[Cl][Pt][Cl] [cisplatin] | minimal efficacy | 
O=P1(N(CCCl)CCCl)NCCCO1 (stereo not shown) [cyclophosphamide] | minimal efficacy | 
Nc1ncn([C@H]2C[C@H](O)[C@@H](CO)O2)c(=O)n1 [decitabine, 5-aza-2′-deoxycytidine] |  | half life in vivo: short half life; tissue distribution (in vivo): excellent tissue distribution
COc1cccc2c1C(=O)c1c(O)c3c(c(O)c1C2=O)C[C@@](O)(C(=O)CO)C[C@@H]3O[C@H]1C[C@H](N)[C@H](O)[C@H](C)O1 [doxorubicin] | minimal efficacy | 
C[C@]12CC[C@@H]3c4ccc(OC(=O)N(CCCl)CCCl)cc4CC[C@H]3[C@@H]1CC[C@@H]2O [estramustine] | minimal efficacy | 
CN(Cc1cnc2nc(N)nc(N)c2n1)c1ccc(C(=O)N[C@@H](CCC(=O)O)C(=O)O)cc1 [methotrexate] | minimal efficacy | 
O=C1c2c(O)ccc(O)c2C(=O)c2c(NCCNCCO)ccc(NCCNCCO)c21 [mitoxantrone] | minimal efficacy | 
depudecin |  | concentration at which HDAC is inhibited [2]: micromolar concentrations
